Test results from ChEMBL document CHEMBL4002605, “Synthesis, identification and in vitro biological evaluation of some novel quinoline incorporated 1,3-thiazinan-4-one derivatives” (Bioorg Med Chem Lett, 2017).
In brackets after ≈: the same amount, converted by molar mass.

Experiments:
Streptococcus pneumoniae = assay: Antibacterial activity against Streptococcus pneumoniae MTCC 1936 by broth microdilution assay method; assay type: functional
Bacillus subtilis = assay: Antibacterial activity against Bacillus subtilis MTCC 441 by broth microdilution assay method; assay type: functional
Clostridium tetani = assay: Antibacterial activity against Clostridium tetani MTCC 449 by broth microdilution assay method; assay type: functional
Escherichia coli = assay: Antibacterial activity against Escherichia coli MTCC 443 by broth microdilution assay method; assay type: functional
Salmonella typhi = assay: Antibacterial activity against Salmonella typhi MTCC 98 by broth microdilution assay method; assay type: functional, Salmonella enterica subsp. enterica serovar Typhi; conditions: Salmonella enterica
Vibrio cholerae = assay: Antibacterial activity against Vibrio cholerae MTCC 3906 by broth microdilution assay method; assay type: functional
[1] = tested on: Mycobacterium tuberculosis; assay: Antitubercular activity against Mycobacterium tuberculosis H37Rv at 6 ug/mL; assay type: functional
Plasmodium falciparum = assay: Antimalarial activity against Plasmodium falciparum; assay type: functional

Structure (SMILES)	MIC (Streptococcus pneumoniae) [µg/mL]	MIC (Bacillus subtilis) [µg/mL]	MIC (Clostridium tetani) [µg/mL]	MIC (Escherichia coli) [µg/mL]	MIC (Salmonella typhi) [µg/mL]	MIC (Vibrio cholerae) [µg/mL]	inhibition at 6 µg/mL [1] [%]	IC50 (Plasmodium falciparum) [µg/mL]
CC1(C)S[C@@H]2[C@H](NC(=O)[C@H](N)c3ccccc3)C(=O)N2[C@H]1C(=O)O [AMPICILLIN]	100 (≈ 286 µM)	250 (≈ 715 µM)	250 (≈ 715 µM)	100 (≈ 286 µM)	100 (≈ 286 µM)	100 (≈ 286 µM)		
O=C1CCSC(c2ccc(O)cc2)N1CCCNc1ccnc2cc(Cl)ccc12 (centres undefined)	125 (≈ 292 µM)	250 (≈ 584 µM)	250 (≈ 584 µM)	250 (≈ 584 µM)	62.5 (≈ 146 µM)	250 (≈ 584 µM)	42	1.14 (≈ 2.66 µM)
O=C1CCSC(c2ccccc2)N1CCCNc1ccnc2cc(Cl)ccc12 (centres undefined)	500 (≈ 1210 µM)	500 (≈ 1210 µM)	500 (≈ 1210 µM)	500 (≈ 1210 µM)	500 (≈ 1210 µM)	500 (≈ 1210 µM)	47	3.5 (≈ 8.5 µM)
O=C(O)c1cn(C2CC2)c2cc(N3CCNCC3)c(F)cc2c1=O [CIPROFLOXACIN]	25 (≈ 75.4 µM)			25 (≈ 75.4 µM)	25 (≈ 75.4 µM)	25 (≈ 75.4 µM)		
COc1ccc(C2SCCC(=O)N2CCCCNc2ccnc3cc(Cl)ccc23)cc1 (centres undefined)	250 (≈ 548 µM)	250 (≈ 548 µM)	250 (≈ 548 µM)	500 (≈ 1100 µM)	250 (≈ 548 µM)	125 (≈ 274 µM)	48	0.81 (≈ 1.78 µM)
O=C(NN1C(=O)CCSC1c1ccc(Cl)cc1)c1cnc2c(C(F)(F)F)cccc2c1O (centres undefined)	250 (≈ 519 µM)	62.5 (≈ 130 µM)	125 (≈ 259 µM)	250 (≈ 519 µM)	250 (≈ 519 µM)	125 (≈ 259 µM)	90	0.067 (≈ 0.139 µM)
CO[C@H]1/C=C/O[C@@]2(C)Oc3c(C)c(O)c4c(O)c(c(/C=N/N5CCN(C)CC5)c(O)c4c3C2=O)NC(=O)/C(C)=C\C=C\[C@H](C)[C@H](O)[C@@H](C)[C@@H](O)[C@@H](C)[C@H](OC(C)=O)[C@@H]1C [RIFAMPIN]							98	
O=C(NN1C(=O)CCSC1c1ccc(O)cc1)c1cnc2c(C(F)(F)F)cccc2c1O (centres undefined)	250 (≈ 539 µM)	125 (≈ 270 µM)	250 (≈ 539 µM)	250 (≈ 539 µM)	125 (≈ 270 µM)	125 (≈ 270 µM)	79	1.58 (≈ 3.41 µM)
O=C(NN1C(=O)CCSC1c1ccc(F)cc1)c1cnc2c(C(F)(F)F)cccc2c1O (centres undefined)	125 (≈ 269 µM)	31.2 (≈ 67.1 µM)	15.6 (≈ 33.5 µM)	125 (≈ 269 µM)	250 (≈ 537 µM)	125 (≈ 269 µM)	92	0.052 (≈ 0.112 µM)
COc1cccc(C2SCCC(=O)N2NC(=O)c2cnc3c(C(F)(F)F)cccc3c2O)c1 (centres undefined)	500 (≈ 1050 µM)	250 (≈ 524 µM)	500 (≈ 1050 µM)	250 (≈ 524 µM)	250 (≈ 524 µM)	250 (≈ 524 µM)	65	1.7 (≈ 3.56 µM)
O=C1CCSC(c2ccc(Br)cc2)N1CCCNc1ccnc2cc(Cl)ccc12 (centres undefined)	62.5 (≈ 127 µM)	62.5 (≈ 127 µM)	100 (≈ 204 µM)	125 (≈ 255 µM)	62.5 (≈ 127 µM)	100 (≈ 204 µM)	87	0.056 (≈ 0.114 µM)
Cc1ccc(C2SCCC(=O)N2CCCCNc2ccnc3cc(Cl)ccc23)cc1 (centres undefined)	500 (≈ 1140 µM)	250 (≈ 568 µM)	250 (≈ 568 µM)	500 (≈ 1140 µM)	500 (≈ 1140 µM)	250 (≈ 568 µM)	40	2.33 (≈ 5.3 µM)
O=C1CCSC(c2ccc(Cl)cc2)N1CCCNc1ccnc2cc(Cl)ccc12 (centres undefined)	62.5 (≈ 140 µM)	125 (≈ 280 µM)	250 (≈ 560 µM)	125 (≈ 280 µM)	250 (≈ 560 µM)	250 (≈ 560 µM)	67	0.12 (≈ 0.269 µM)
COc1ccc(C2SCCC(=O)N2CCNc2ccnc3cc(Cl)ccc23)cc1 (centres undefined)	250 (≈ 584 µM)	250 (≈ 584 µM)	125 (≈ 292 µM)	125 (≈ 292 µM)	250 (≈ 584 µM)	250 (≈ 584 µM)	60	0.62 (≈ 1.45 µM)
O=C1CCSC(c2ccc(Br)cc2)N1CCNc1ccnc2cc(Cl)ccc12 (centres undefined)	62.5 (≈ 131 µM)	31.2 (≈ 65.5 µM)	31.2 (≈ 65.5 µM)	125 (≈ 262 µM)	100 (≈ 210 µM)	31.2 (≈ 65.5 µM)	95	0.045 (≈ 0.0944 µM)
O=C1CCSC(c2cccc(Cl)c2)N1CCCNc1ccnc2cc(Cl)ccc12 (centres undefined)	250 (≈ 560 µM)	125 (≈ 280 µM)	250 (≈ 560 µM)	250 (≈ 560 µM)	250 (≈ 560 µM)	250 (≈ 560 µM)	55	1.62 (≈ 3.63 µM)
Cc1ccc(C2SCCC(=O)N2CCCNc2ccnc3cc(Cl)ccc23)cc1 (centres undefined)	250 (≈ 587 µM)	125 (≈ 293 µM)	500 (≈ 1170 µM)	250 (≈ 587 µM)	500 (≈ 1170 µM)	500 (≈ 1170 µM)	41	2.2 (≈ 5.16 µM)
O=C(NN1C(=O)CCSC1c1ccccc1)c1cnc2c(C(F)(F)F)cccc2c1O (centres undefined)	500 (≈ 1120 µM)	250 (≈ 559 µM)	500 (≈ 1120 µM)	500 (≈ 1120 µM)	500 (≈ 1120 µM)	500 (≈ 1120 µM)	55	2.1 (≈ 4.69 µM)
COc1cccc(C2SCCC(=O)N2CCCCNc2ccnc3cc(Cl)ccc23)c1 (centres undefined)	500 (≈ 1100 µM)	500 (≈ 1100 µM)	250 (≈ 548 µM)	250 (≈ 548 µM)	250 (≈ 548 µM)	125 (≈ 274 µM)	42	2.14 (≈ 4.69 µM)
